Measurements reported in US12077503B2, “Substituted cyclic amides and their use as herbicides” (FMC CORPORATION, priority 2015, dated 2024).

Tests used:
Format in all cases: in vivo
[1] = test system: barnyardgrass (Echinochloa crus-galli); experiment: Test A preemergence; conditions: Echinochloa crus-galli, pre-emergence, 240 h, read-out: Plant response rating, Barnyardgrass
How it was run: (§1)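 Compounds were formulated in a non-phytotoxic solvent mixture with surfactant and applied as a preemergence directed soil spray after seeding, or sprayed postemergence over plants 2 to 10 cm tall at the one- to two-leaf stage. Evaluation after about 10 d compared treated with untreated controls, using a scale from 0 (no effect) to 100 (complete control).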

[2] = test system: Galium (catchweed bedstraw, Galium aparine); experiment: Test A postemergence; conditions: Galium, post-emergence, 240 h, postemergence, 0 to 100 scale (0 no effect, 100 complete control), read-out: Plant response rating, Galium
How it was run: as §1

Kochia (Kochia scoparia) = experiment: Test A postemergence; conditions: Bassia scoparia, post-emergence, 240 h, postemergence, 0 to 100 scale (0 no effect, 100 complete control), read-out: Plant response rating, Kochia
How it was run: as §1

[3] = test system: barnyardgrass (Echinochloa crus-galli); experiment: Test A postemergence; conditions: Echinochloa crus-galli, post-emergence, 240 h, read-out: Plant response rating, Barnyardgrass
How it was run: as §1

[4] = test system: blackgrass (Alopecurus myosuroides); experiment: Test A postemergence; conditions: Alopecurus myosuroides, post-emergence, 240 h, read-out: Plant response rating, Blackgrass
How it was run: as §1

corn (Zea mays) = experiment: Test A postemergence; conditions: Zea mays, post-emergence, 240 h
How it was run: as §1

[5] = test system: giant foxtail (Setaria faberii); experiment: Test A postemergence; conditions: Setaria faberi, post-emergence, 240 h, postemergence, 0 to 100 scale (0 no effect, 100 complete control), read-out: Plant response rating, Foxtail, Giant
How it was run: as §1

[6] = test system: pigweed (Amaranthus retroflexus); experiment: Test A postemergence; conditions: Amaranthus retroflexus, post-emergence, 240 h, postemergence, 0 to 100 scale (0 no effect, 100 complete control), read-out: Plant response rating, Pigweed
How it was run: as §1

[7] = test system: ragweed (common ragweed, Ambrosia elatior); experiment: Test A postemergence; conditions: Ambrosia artemisiifolia, post-emergence, 240 h, postemergence, 0 to 100 scale (0 no effect, 100 complete control), read-out: Plant response rating, Ragweed
How it was run: as §1

[8] = test system: ryegrass, Italian (Italian ryegrass, Lolium multiflorum); experiment: Test A postemergence; conditions: Lolium multiflorum, post-emergence, 240 h, postemergence, 0 to 100 scale (0 no effect, 100 complete control), read-out: Plant response rating, Ryegrass, Italian
How it was run: as §1

[9] = test system: wheat (Triticum aestivum); experiment: Test A postemergence; conditions: Triticum aestivum, post-emergence, 240 h, postemergence, 0 to 100 scale (0 no effect, 100 complete control), read-out: Plant response rating, Wheat
How it was run: as §1

[10] = test system: barnyardgrass (Echinochloa crus-galli); experiment: Test B flooded paddy test; conditions: Flood, 250 g ai/ha; 0 to 100 scale where 0 is no effect and 100 is complete control; 13 to 15 d
How it was run: (§2)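 Evaluation by eye, against controls, occurred 13–15 d post-treatment in a greenhouse, using a 0 (no effect) to 100 (complete control) scale. Application was into the paddy water, 3 cm deep over the soil, on 2-leaf plants.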

[11] = test system: ducksalad (Heteranthera limosa); experiment: Test B flooded paddy test; conditions: Flood, 250 g ai/ha; 0 to 100 scale where 0 is no effect and 100 is complete control; 13 to 15 d
How it was run: as §2

rice (Oryra sativa) = experiment: Test B flooded paddy test; conditions: Flood, 250 g ai/ha; 0 to 100 scale where 0 is no effect and 100 is complete control; 13 to 15 d
How it was run: as §2

[12] = test system: sedge, umbrella (small-flower umbrella sedge, Cyperus difformis); experiment: Test B flooded paddy test; conditions: Flood, 250 g ai/ha; 0 to 100 scale where 0 is no effect and 100 is complete control; 13 to 15 d
How it was run: as §2

[13] = 125 g ai/ha, visual rating after approx. 10 d
[14] = 500 g ai/ha, visual injury, approx. 10 d
[15] = 125 g ai/ha, postemergence, visual rating after approx. 10 d, 0 to 100 scale (0 no effect, 100 complete control)
[16] = Postemergence, 500 g ai/ha, 0 to 100 scale where 0 is no effect and 100 is complete control

Compound CN1C[C@H](c2ccc(F)c(F)c2)[C@@H](C(=O)Nc2cccc(F)c2F)C1=O [Compound 639, (3S,4S)—N-(2,3-difluorophenyl)-4-(3,4-difluorophenyl)-1-methyl-2-oxo-3-pyrrolidinecarboxamide] has a pest or weed control at 125 g/ha ([1]; 125 g ai/ha, Preemergence, visual injury after approximately 10 d, 0 to 100 scale where 0 is no effect and 100 is complete control) of 90%, a pest or weed control at 500 g/ha ([1]; 500 g ai/ha, preemergence, 0 to 100 scale, 0 = no effect, 100 = complete control) of 90% and a pest or weed control at 125 g/ha [2, 13] of 40%. For the same compound, the pest or weed control at 500 g/ha [2, 14] was 50%, the pest or weed control at 125 g/ha (Kochia (Kochia scoparia); [13]) was 60% and the pest or weed control at 500 g/ha (Kochia (Kochia scoparia); [14]) was 70%. It also gave a pest or weed control at 125 g/ha [3, 15] of 90%, a pest or weed control at 500 g/ha [3, 16] of 90% and a pest or weed control at 125 g/ha [4, 15] of 60%. For the same compound, the pest or weed control at 500 g/ha [4, 16] was 60%, the Corn plant response rating (crop injury, 0 = no effect, 100 = complete kill) at 125 g/ha (corn (Zea mays); [15]) was 40% and the Corn plant response rating (crop injury, 0 = no effect, 100 = complete kill) at 500 g/ha (corn (Zea mays); [16]) was 80%. For the same compound, the pest or weed control at 125 g/ha [5, 13] was 90%, the pest or weed control at 500 g/ha [5, 14] was 90% and the pest or weed control at 125 g/ha [6, 13] was 20%. For the same compound, the pest or weed control at 500 g/ha [6, 14] was 50%, the pest or weed control at 125 g/ha [7, 13] was 0% and the pest or weed control at 500 g/ha [7, 14] was 30%. It also gave a pest or weed control at 125 g/ha [8, 13] of 30%, a pest or weed control at 500 g/ha [8, 14] of 50% and a plant injury at 125 g/ha [9, 13] of 60%. For the same compound, the plant injury at 500 g/ha [9, 14] was 60%, the “Plant response rating, Barnyardgrass” value [10] was 80 and the “Plant response rating, Ducksalad” value [11] was 100. For the same compound, the “Plant response rating, Rice” value (rice (Oryra sativa)) was 0 and the “Plant response rating, Sedge, Umbrella” value [12] was 0.
